Laboratory results: patent publication US8338490B2, “Composition for repelling and deterring vermin” (Novartis AG, priority 2006, dated 2012)

Columns and labels:
[1] = test system: various parasites, e.g. ticks; assay: Arena test: general method for testing vermin-deterring substances; conditions: 1 to 100 μg/cm^2 on filter paper, video evaluation
Procedure: Arena Test: General Method for Testing Vermin-Deterring Substances
This method is carried out in titre plates having 6 wells with a cross-section of 5 cm each, using a computer-supported video system. Each well of the titre plate is lined with a circular filter paper or another suitable carrier material. The substance of formula I to be tested is dissolved in methanol, acetonitrile or another suitable solvent, with ultrasound treatment and heating being employed for poorly-soluble substances. In an amount of 1 to 100 μg/cm^2, the dissolved test substance is placed in the centre of the filter paper on a quadrant or circular area of ca. 2.4 cm^2 radius. 4 of the 6 wells are filled with different test substances or with the same test substance in different dilutions (e.g. 1, 3.2, 5, 10 and 20 μg/cm^2). The 5th well is treated with DEET (N,N-diethyl-m-toluamide) as standard substance. The 6th well is filled with the pure solvent and serves as a control. 60 to 100 larvae or 25 to 50 nymphs or 10 to 25 adults of the parasite to be tested, e.g. ticks, are added to each filter paper, and the system is covered with a pane of glass and positioned under a video camera.
At intervals of 5 seconds, the video camera takes individual pictures of all 6 wells. For a qualitative evaluation, these images are observed in a time-lapse as a continuous film, optically following the movements of the parasites on the filter paper and comparing them with the movements in the control well no. 6 or with the standard in the 5th well. A qualitative observation is thus made as to whether the test parasites move evenly over the whole surface of the filter paper and ignore the test substance, or whether and over what period they avoid the treated zone, and what influence the dilution of the test substance has on the behaviour of the test parasites. In this way, neutral and deterring substances are determined. At the same time, the duration of activity of the test substance is determined and compared with that of the standard. By plotting all the images for each individual well over one another, different areas of density are obtained. This represents the frequency at which the parasites visit certain places. This frequency is evaluated statistically and thus quantitatively by the Willcoxon method in a comparison with the control and with the standard.

[2] = test system: Amblyomma hebraeum or variegatum (nymphs); assay: Arena test in vitro against Amblyomma hebraeum or variegatum (nymphs); conditions: ca. 25 to 50 per well, video evaluation
Procedure: This method is carried out in titre plates having 6 wells with a cross-section of 5 cm each, using a computer-supported video system. Each well of the titre plate is lined with a circular filter paper or another suitable carrier material. The substance of formula I to be tested is dissolved in methanol, acetonitrile or another suitable solvent, with ultrasound treatment and heating being employed for poorly-soluble substances. In an amount of 1 to 100 μg/cm^2, the dissolved test substance is placed in the centre of the filter paper on a quadrant or circular area of ca. 2.4 cm^2 radius. 4 of the 6 wells are filled with different test substances or with the same test substance in different dilutions (e.g. 1, 3.2, 5, 10 and 20 μg/cm^2). The 5th well is treated with DEET (N,N-diethyl-m-toluamide) as standard substance. The 6th well is filled with the pure solvent and serves as a control. 60 to 100 larvae or 25 to 50 nymphs or 10 to 25 adults of the parasite to be tested, e.g. ticks, are added to each filter paper, and the system is covered with a pane of glass and positioned under a video camera. At intervals of 5 seconds, the video camera takes individual pictures of all 6 wells. For a qualitative evaluation, these images are observed in a time-lapse as a continuous film, optically following the movements of the parasites on the filter paper and comparing them with the movements in the control well no. 6 or with the standard in the 5th well. A qualitative observation is thus made as to whether the test parasites move evenly over the whole surface of the filter paper and ignore the test substance, or whether and over what period they avoid the treated zone, and what influence the dilution of the test substance has on the behaviour of the test parasites. In this way, neutral and deterring substances are determined. At the same time, the duration of activity of the test substance is determined and compared with that of the standard. By plotting all the images for each individual well over one another, different areas of density are obtained. This represents the frequency at which the parasites visit certain places. This frequency is evaluated statistically and thus quantitatively by the Willcoxon method in a comparison with the control and with the standard. […] Arena Test In Vitro Against Amblyomma hebraeum or variegatum (nymphs) The test is carried out as described above, with ca. 25 to 50 nymphs being added per well. 10 mg of dissolved test substance is applied to an area of 2.4 cm^2 radius. […] Particularly marked long-term activity is shown for example by using the compounds Nos. 1.001, 2.001, 3.001, 4.001, 5.001, 5.184, 5.185, and 5.186 even up to a dilution of 3.2 μg/cm^2.

[3] = test system: Boophilus microplus Biarra (larvae); assay: Arena test in vitro against Boophilus microplus Biarra (larvae); conditions: ca. 60 to 100 per well, video evaluation
Procedure: This method is carried out in titre plates having 6 wells with a cross-section of 5 cm each, using a computer-supported video system. Each well of the titre plate is lined with a circular filter paper or another suitable carrier material. The substance of formula I to be tested is dissolved in methanol, acetonitrile or another suitable solvent, with ultrasound treatment and heating being employed for poorly-soluble substances. In an amount of 1 to 100 μg/cm^2, the dissolved test substance is placed in the centre of the filter paper on a quadrant or circular area of ca. 2.4 cm^2 radius. 4 of the 6 wells are filled with different test substances or with the same test substance in different dilutions (e.g. 1, 3.2, 5, 10 and 20 μg/cm^2). The 5th well is treated with DEET (N,N-diethyl-m-toluamide) as standard substance. The 6th well is filled with the pure solvent and serves as a control. 60 to 100 larvae or 25 to 50 nymphs or 10 to 25 adults of the parasite to be tested, e.g. ticks, are added to each filter paper, and the system is covered with a pane of glass and positioned under a video camera. At intervals of 5 seconds, the video camera takes individual pictures of all 6 wells. For a qualitative evaluation, these images are observed in a time-lapse as a continuous film, optically following the movements of the parasites on the filter paper and comparing them with the movements in the control well no. 6 or with the standard in the 5th well. A qualitative observation is thus made as to whether the test parasites move evenly over the whole surface of the filter paper and ignore the test substance, or whether and over what period they avoid the treated zone, and what influence the dilution of the test substance has on the behaviour of the test parasites. In this way, neutral and deterring substances are determined. At the same time, the duration of activity of the test substance is determined and compared with that of the standard. By plotting all the images for each individual well over one another, different areas of density are obtained. This represents the frequency at which the parasites visit certain places. This frequency is evaluated statistically and thus quantitatively by the Willcoxon method in a comparison with the control and with the standard. […] Arena Test In Vitro Against Boophilus microplus Biarra (larvae) The test is carried out as described above, with ca. 60 to 100 larvae being added per well. 10 mg of dissolved test substance is applied to an area of 2.4 cm^2 radius. […] Particularly marked long-term activity is shown for example by using the compounds Nos. 1.001, 2.001, 3.001, 4.001, 5.001, 5.184, 5.185, and 5.186 even up to a dilution of 10 μg/cm^2.

[4] = test system: Rhipicephalus sanguineus (nymphs); assay: Arena test in vitro against Rhipicephalus sanguineus (nymphs); conditions: ca. 40 to 50, video evaluation
Procedure: This method is carried out in titre plates having 6 wells with a cross-section of 5 cm each, using a computer-supported video system. Each well of the titre plate is lined with a circular filter paper or another suitable carrier material. The substance of formula I to be tested is dissolved in methanol, acetonitrile or another suitable solvent, with ultrasound treatment and heating being employed for poorly-soluble substances. In an amount of 1 to 100 μg/cm^2, the dissolved test substance is placed in the centre of the filter paper on a quadrant or circular area of ca. 2.4 cm^2 radius. 4 of the 6 wells are filled with different test substances or with the same test substance in different dilutions (e.g. 1, 3.2, 5, 10 and 20 μg/cm^2). The 5th well is treated with DEET (N,N-diethyl-m-toluamide) as standard substance. The 6th well is filled with the pure solvent and serves as a control. 60 to 100 larvae or 25 to 50 nymphs or 10 to 25 adults of the parasite to be tested, e.g. ticks, are added to each filter paper, and the system is covered with a pane of glass and positioned under a video camera. At intervals of 5 seconds, the video camera takes individual pictures of all 6 wells. For a qualitative evaluation, these images are observed in a time-lapse as a continuous film, optically following the movements of the parasites on the filter paper and comparing them with the movements in the control well no. 6 or with the standard in the 5th well. A qualitative observation is thus made as to whether the test parasites move evenly over the whole surface of the filter paper and ignore the test substance, or whether and over what period they avoid the treated zone, and what influence the dilution of the test substance has on the behaviour of the test parasites. In this way, neutral and deterring substances are determined. At the same time, the duration of activity of the test substance is determined and compared with that of the standard. By plotting all the images for each individual well over one another, different areas of density are obtained. This represents the frequency at which the parasites visit certain places. This frequency is evaluated statistically and thus quantitatively by the Willcoxon method in a comparison with the control and with the standard. […] Arena Test In Vitro Against Rhipicephalus sanguineus (nymphs) A test is carried out analogously to example B using ca. 40 to 50 nymphs. […] In particular, the compounds are notable for their almost complete deterring action, which lasts considerably longer than that of DEET. Particularly marked long-term activity is shown for example by compounds Nos. 1.001, 2.001, 3.001, 4.001, 5.001, 5.184, 5.185, and 5.186 even up to a dilution of 10 μg/cm^2.

OCC1CCCCN1Cc1ccccc1 (stereo not drawn) [Compound 1.001]
vermin-deterring activity in the arena test [1]: excellent activity | dilution up to which particularly marked long-term activity is shown [2]: 3.2 μg/cm^2 | dilution up to which particularly marked long-term activity is shown [3]: 10 μg/cm^2 | dilution up to which particularly marked long-term activity is shown [4]: 10 μg/cm^2

OCC1CCCN1Cc1ccccc1 (stereo not drawn) [Compound 2.001]
vermin-deterring activity in the arena test [1]: excellent activity | dilution up to which particularly marked long-term activity is shown [2]: 3.2 μg/cm^2 | dilution up to which particularly marked long-term activity is shown [3]: 10 μg/cm^2 | dilution up to which particularly marked long-term activity is shown [4]: 10 μg/cm^2

OC1CCN(Cc2ccccc2)C1 (stereo not drawn) [Compound 3.001, 1-Benzyl-pyrrolidin-3-ol]
vermin-deterring activity in the arena test [1]: excellent activity | dilution up to which particularly marked long-term activity is shown [2]: 3.2 μg/cm^2 | dilution up to which particularly marked long-term activity is shown [3]: 10 μg/cm^2 | dilution up to which particularly marked long-term activity is shown [4]: 10 μg/cm^2

OC1CCCN(Cc2ccccc2)C1 (stereo not drawn) [Compound 4.001]
vermin-deterring activity in the arena test [1]: excellent activity | dilution up to which particularly marked long-term activity is shown [2]: 3.2 μg/cm^2 | dilution up to which particularly marked long-term activity is shown [3]: 10 μg/cm^2 | dilution up to which particularly marked long-term activity is shown [4]: 10 μg/cm^2

OCCN(Cc1ccccc1)Cc1ccccc1 [Compound 5.001]
vermin-deterring activity in the arena test [1]: excellent activity | dilution up to which particularly marked long-term activity is shown [2]: 3.2 μg/cm^2 | dilution up to which particularly marked long-term activity is shown [3]: 10 μg/cm^2 | dilution up to which particularly marked long-term activity is shown [4]: 10 μg/cm^2

CC(CO)N(Cc1ccccc1)Cc1ccccc1 (stereo not drawn) [Compound 5.184]
vermin-deterring activity in the arena test [1]: excellent activity | dilution up to which particularly marked long-term activity is shown [2]: 3.2 μg/cm^2 | dilution up to which particularly marked long-term activity is shown [3]: 10 μg/cm^2 | dilution up to which particularly marked long-term activity is shown [4]: 10 μg/cm^2
